Measurements reported in BindingDB's records for doi:10.7270/Q2QJ7FTF (Burnham Center For Chemical Genomics, 2011).
pIC50: −log10 of the molar value.

Biological target: T1, C-C chemokine receptor type 6 (Homo sapiens, UniProt P51684)
T1 sequence (P51684 whole entry): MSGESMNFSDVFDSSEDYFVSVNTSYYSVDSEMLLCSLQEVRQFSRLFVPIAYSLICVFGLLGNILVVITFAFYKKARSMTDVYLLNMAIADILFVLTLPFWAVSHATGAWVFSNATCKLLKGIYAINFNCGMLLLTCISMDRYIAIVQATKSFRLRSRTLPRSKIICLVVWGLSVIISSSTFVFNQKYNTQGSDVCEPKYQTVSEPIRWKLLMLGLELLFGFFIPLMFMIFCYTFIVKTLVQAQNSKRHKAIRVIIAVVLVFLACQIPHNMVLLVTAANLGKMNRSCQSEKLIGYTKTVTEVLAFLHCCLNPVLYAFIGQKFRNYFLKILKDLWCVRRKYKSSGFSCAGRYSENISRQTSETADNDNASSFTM
Assay: analog antagonism of CCR6 beta-arrestin signaling – cell-based, luminescent beta-arrestin readout, SAR follow-up (AID 540334)

SMILES | pIC50
CN1C(=O)C(C2CC(c3ccc(Cl)cc3)N=N2)C(=O)N(C)C1=O (configuration not stated) [SMR000439471] | 5.23
OCC12C=CC(O1)c1c2c(O)n(-c2ccccc2-c2ccccc2)c1O (configuration not stated) [7-(hydroxymethyl)-2-(2-phenylphenyl)-4,7a-dihydro-3aH-octahydro-1H-4,7-epoxyisoindole-1,3-dione] | < 4.18
